Source: patent publication US8143263B2, “Therapeutic agents” (Astrazeneca AB, priority 2008, dated 2012)

The compounds below were run against T1, recombinant human pancreatic GLK (Homo sapiens, UniProt P35557) (assay: biochemical).
T1 sequence (P35557 1-465): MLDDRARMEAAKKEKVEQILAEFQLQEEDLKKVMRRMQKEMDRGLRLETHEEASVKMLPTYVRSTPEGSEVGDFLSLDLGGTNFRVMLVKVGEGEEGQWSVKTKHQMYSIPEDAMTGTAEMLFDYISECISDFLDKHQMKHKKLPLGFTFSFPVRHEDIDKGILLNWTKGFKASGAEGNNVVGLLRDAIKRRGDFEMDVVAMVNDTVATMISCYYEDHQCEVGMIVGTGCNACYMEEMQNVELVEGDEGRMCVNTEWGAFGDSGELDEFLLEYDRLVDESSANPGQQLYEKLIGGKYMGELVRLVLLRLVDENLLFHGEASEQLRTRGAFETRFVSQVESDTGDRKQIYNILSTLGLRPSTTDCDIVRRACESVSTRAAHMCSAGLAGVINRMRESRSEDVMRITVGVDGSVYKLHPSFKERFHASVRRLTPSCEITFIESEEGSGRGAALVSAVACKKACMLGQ

SMILES | EC50
N#Cc1ccc(NC(=O)[C@H](CN2CC(O)C2)Oc2ncnc3c2cnn3-c2ccccc2Cl)nc1 [Example 223, (2S)-2-[1-(2-chlorophenyl)pyrazolo[3,4-d]pyrimidin-4-yl]oxy-N-(5-cyano-2-pyridyl)-3-(3-hydroxyazetidin-1-yl)propanamide] | 310 nM
C[C@H](CO)OC[C@H](Oc1ncnc2c1cnn2-c1ccccc1Cl)C(=O)Nc1ccc(F)cn1 [Example 245, (2S)-2-[1-(2-chlorophenyl)pyrazolo[3,4-d]pyrimidin-4-yl]oxy-N-(5-fluoro-2-pyridyl)-3-[(1R)-2-hydroxy-1-methyl-ethoxy]propanamide] | 470 nM
O=C(Nc1ccc(Cl)cn1)[C@H](COCCO)Oc1ncnc2c1cnn2-c1ccccc1Cl [Example 171, (2S)-2-[1-(2-chlorophenyl)pyrazolo[4,5-e]pyrimidin-4-yl]oxy-N-(5-chloropyridin-2-yl)-3-(2-hydroxyethoxy)propanamide] | 330 nM
CCC(Oc1ncnc2c1cnn2-c1ccccc1OC)C(=O)Nc1ccc(C)cn1 (stereo not drawn) [Example 42, 2-{[1-(2-Methoxyphenyl)-1H-pyrazolo[3,4-d]pyrimidin-4-yl]oxy}-N-(5-methylpyridin-2-yl)butanamide] | 410 nM
COC[C@H](Oc1ncnc2c1cnn2-c1ncccc1Cl)C(=O)Nc1ccc(C)cn1 [Example 89, (2S)-2-(1-(3-chloropyridin-2-yl)-1H-pyrazolo[3,4-d]pyrimidin-4-yloxy)-3-methoxy-N-(5-methylpyridin-2-yl)propanamide] | 1500 nM
Cc1c(F)cccc1-n1ncc2c(O[C@@H](COCCO)C(=O)Nc3ccc(Cl)cn3)ncnc21 [Example 170, (2S)—N-(5-chloropyridin-2-yl)-2-[1-(3-fluoro-2-methylphenyl)pyrazolo[4,5-e]pyrimidin-4-yl]oxy-3-(2-hydroxyethoxy)propanamide] | 1500 nM
COCCOCCC(Sc1ncnc2c1cnn2C(C)C)C(=O)Nc1nc(C)cs1 (stereo not drawn) [Example 57, 2-[(1-Isopropyl-1H-pyrazolo[3,4-d]pyrimidin-4-yl)thio]-4-(2-methoxyethoxy)-N-(4-methyl-1,3-thiazol-2-yl)butanamide] | 30000 nM
CCOC[C@H](Oc1ncnc2c1cnn2-c1ncccc1C)C(=O)Nc1ccc(Cl)cn1 [Example 128a, (2S)—N-(5-chloropyridin-2-yl)-3-ethoxy-2-(1-(3-methylpyridin-2-yl)-1H-pyrazolo[3,4-d]pyrimidin-4-yloxy)propanamide] | 620 nM
O=C(Nc1ccncn1)[C@H](CCO)Oc1ncnc2c1cnn2-c1ncccc1Cl [Example 143f, (2S)-2-[1-(3-chloro-2-pyridyl)pyrazolo[4,5-e]pyrimidin-4-yl]oxy-4-hydroxy-N-pyrimidin-4-yl-butanamide] | 980 nM
COC[C@@H](C)OC[C@H](Oc1ncnc2c1cnn2-c1ccccc1Cl)C(=O)Nc1cnc(C)cn1 [Example 155, (2S)-2-(1-(2-chlorophenyl)-1H-pyrazolo[3,4-d]pyrimidin-4-yloxy)-3-((R)-1-methoxypropan-2-yloxy)-N-(5-methylpyrazin-2-yl)propanamide] | 760 nM
CCOC[C@H](Oc1ncnc2c1cnn2-c1ncccc1Cl)C(=O)Nc1ccc(C(=O)N(C)C)cn1 [Example 147, 6-[[(2S)-2-[1-(3-chloro-2-pyridyl)pyrazolo[4,5-e]pyrimidin-4-yl]oxy-3-ethoxy-propanoyl]amino]-N,N-dimethyl-pyridine-3-carboxamide] | 7800 nM
Cc1cnc(NC(=O)[C@@H](Oc2ncnc3c2cnn3-c2ncccc2Cl)C(C)C)cn1 [Example 94, (2S)-2-(1-(3-chloropyridin-2-yl)-1H-pyrazolo[3,4-d]pyrimidin-4-yloxy)-3-methyl-N-(5-methylpyrazin-2-yl)butanamide] | 9200 nM
Cc1ccc(NC(=O)[C@H](CO[C@H](C)CO)Oc2ncnc3c2cnn3-c2cscc2C)nc1 [Example 227, (2S)-3-[(1R)-2-hydroxy-1-methyl-ethoxy]-N-(5-methyl-2-pyridyl)-2-[1-(4-methyl-3-thienyl)pyrazolo[3,4-d]pyrimidin-4-yl]oxy-propanamide] | 320 nM
CC(C)OCC(Oc1ncnc2c1cnn2-c1ccccc1Cl)C(=O)Nc1ccc(Cl)cn1 (stereo not drawn) [Example 115, 2-[1-(2-chlorophenyl)pyrazolo[4,5-e]pyrimidin-4-yl]oxy-N-(5-chloro-2-pyridyl)-3-isopropoxy-propanamide] | 110 nM
Cc1cnc(NC(=O)[C@H](COC2CCC2)Oc2ncnc3c2cnn3-c2ncc(Cl)cc2C(F)(F)F)cn1 [Example 138, (2S)-2-[1-[5-chloro-3-(trifluoromethyl)pyridin-2-yl]pyrazolo[4,5-e]pyrimidin-4-yl]oxy-3-cyclobutyloxy-N-(5-methylpyrazin-2-yl)propanamide] | 810 nM
Cc1cnc(NC(=O)[C@H](COC2CCC2)Oc2ncnc3c2cnn3-c2ncccc2C(F)(F)F)cn1 [Example 137, (2S)-3-cyclobutyloxy-N-(5-methylpyrazin-2-yl)-2-[1-[3-(trifluoromethyl)pyridin-2-yl]pyrazolo[4,5-e]pyrimidin-4-yl]oxypropanamide] | 350 nM
Cc1cnc(NC(=O)[C@H](COC2CCC2)Oc2ncnc3c2cnn3-c2cnccc2C)cn1 [Example 188, (2S)-3-cyclobutoxy-N-(5-methylpyrazin-2-yl)-2-(1-(4-methylpyridin-3-yl)-1H-pyrazolo[3,4-d]pyrimidin-4-yloxy)propanamide] | 1100 nM
O=C(Nc1ccccn1)[C@H](CN1CC(CO)C1)Oc1ncnc2c1cnn2-c1ccccc1Cl [Example 228, (2S)-2-[1-(2-chlorophenyl)pyrazolo[3,4-d]pyrimidin-4-yl]oxy-3-[3-(hydroxymethyl)azetidin-1-yl]-N-(2-pyridyl)propanamide] | 460 nM
Cc1ccc(F)cc1-n1ncc2c(O[C@@H](COCCO)C(=O)Nc3ccc(C#N)cn3)ncnc21 [Example 182, (2S)—N-(5-cyanopyridin-2-yl)-2-(1-(5-fluoro-2-methylphenyl)-1H-pyrazolo[3,4-d]pyrimidin-4-yloxy)-3-(2-hydroxyethoxy)propanamide] | 3000 nM
CCOC[C@H](Oc1ncnc2c1cnn2-c1cc(C)ccc1C)C(=O)Nc1ccc(C#N)cn1 [Example 186, (2S)—N-(5-cyanopyridin-2-yl)-2-(1-(2,5-dimethylphenyl)-1H-pyrazolo[3,4-d]pyrimidin-4-yloxy)-3-ethoxypropanamide] | 1800 nM
Cc1ccc(NC(=O)[C@H](COC(C)C)Oc2ncnc3c2cnn3-c2ncccc2C)nc1 [Example 125, (2S)-3-Isopropoxy-N-(5-methylpyridin-2-yl)-2-(1-(3-methylpyridin-2-yl)-1H-pyrazolo[3,4-d]pyrimidin-4-yloxy)propanamide] | 310 nM
CC(C)OCC(Oc1ncnc2c1cnn2-c1ccccc1Cl)C(=O)Nc1ccon1 (stereo not drawn) [Example 119, 2-[1-(2-chlorophenyl)pyrazolo[4,5-e]pyrimidin-4-yl]oxy-3-isopropoxy-N-isoxazol-3-yl-propanamide] | 1200 nM
COCC(Oc1ncnc2c1cnn2C)C(=O)Nc1ccc(C)cn1 (stereo not drawn) [Example 8, 3-methoxy-2-[(1-methyl-1H-pyrazolo[3,4-d]pyrimidin-4-yl)oxy]-N-(5-methylpyridin-2-yl)propanamide] | ≥ 100000 nM
COCC[C@H](Oc1ncnc2c1cnn2-c1ccc(F)cc1F)C(=O)Nc1ccc(C)cn1 [Example 27, (S)-2-{[1-(2,4-difluorophenyl)-1H-pyrazolo[3,4-d]pyrimidin-4-yl]oxy}-4-methoxy-N-(5-methylpyridin-2-yl)butanamide] | 1000 nM
